Assay results from patent US20230203003A1, “Notch Inhibitors and Uses Thereof” (StemSynergy Therapeutics, Inc., priority 2020, published 2023).
Counter-ions that a name gives are not always drawn. Like-named read-outs stand apart in the source and are kept apart here.

Tests used:
Assay type in all cases: cell-based
[1] = biological target: T1, hNotch1ICD (Homo sapiens, UniProt P46531); test: Notch1 Reporter Assay (Dox-inducible Notch1-ICD, CSL-responsive luciferase in 293A cells); conditions: read-out: Notch1 Reporter Assay IC50
T1 construct: pLV[Tet]-Puro-TRE3G>Notch1-ICD; expressed in transfected cells; host or cells: 293A cells
T1 sequence (P46531 1754-2555 limits assumed): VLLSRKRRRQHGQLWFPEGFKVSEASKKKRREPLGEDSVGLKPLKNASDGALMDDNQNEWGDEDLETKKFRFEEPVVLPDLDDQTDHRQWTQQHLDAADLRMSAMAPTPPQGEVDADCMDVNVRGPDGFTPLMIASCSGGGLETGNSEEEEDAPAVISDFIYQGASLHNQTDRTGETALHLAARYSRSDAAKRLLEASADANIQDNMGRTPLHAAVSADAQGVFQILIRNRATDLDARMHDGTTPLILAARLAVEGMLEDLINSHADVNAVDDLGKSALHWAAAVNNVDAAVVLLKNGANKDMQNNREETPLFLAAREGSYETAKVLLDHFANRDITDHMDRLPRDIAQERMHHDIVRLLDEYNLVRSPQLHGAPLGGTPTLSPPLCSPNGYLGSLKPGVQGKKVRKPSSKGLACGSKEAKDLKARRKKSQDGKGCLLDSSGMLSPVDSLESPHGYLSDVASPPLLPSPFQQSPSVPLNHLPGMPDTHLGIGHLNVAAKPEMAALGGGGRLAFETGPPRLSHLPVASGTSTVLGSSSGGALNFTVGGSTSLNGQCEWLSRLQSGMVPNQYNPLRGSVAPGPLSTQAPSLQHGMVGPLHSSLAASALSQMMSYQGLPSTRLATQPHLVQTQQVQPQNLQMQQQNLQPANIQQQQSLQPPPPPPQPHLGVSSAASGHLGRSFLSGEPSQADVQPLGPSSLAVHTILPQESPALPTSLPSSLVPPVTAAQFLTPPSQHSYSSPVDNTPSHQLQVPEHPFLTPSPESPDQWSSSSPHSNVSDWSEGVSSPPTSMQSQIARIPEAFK
Experimental: 293A cells expressing 1) pCMV-Tet-On 3G, 2) pLV[Tet]-Puro-TRE3G>Notch1-ICD, 3) pLV[Tet]-Puro-TRE3G>Notch2-ICD, 4) pLV[Tet]-Puro-TRE3G>Notch3-ICD, and 5) pCSL-RElement-Luc were used. When Doxycycline is added, the Tet-ON gene activates expression of hNotch1ICD, which together with endogenous NTC components binds to CSL responsive elements (pCSL-RElement-Luc) and expresses luciferase. 1 ×× 10^4 cells are plated in 100 µL (96-well format). 24 h later, compounds (10 mM stock in DMSO) are diluted in DMSO to 200X, then added (5 ul into 1 mL) to cell culture media containing 50 ng/mL Dox. This is then added 1:1 to cells. Final DMSO = 0.25%, Dox = 25 ng/mL. After 24 h, media is discarded, and cells are lysed in passive lysis buffer (Promega). Cells are rocked at room temperature for 15 min and then lysate is divided for luciferase assay (Luciferase Assay System, Promega) and cell viability (CellTiter Glo 2.0, Promega). Raw luciferase is normalized to cell viability, and then scaled to DMSO wells. Results are analyzed and IC50′s are determined in GraphPad by nonlinear regression curve fitting (4 parameter) of dose response curves.

[2] = tested on: OE33 Esophageal Adenocarcinoma cell line; test: OE33 Colony Formation Assay; conditions: Homo sapiens, OE33, 168 h, OE33 cells, 200 cells/well, 7 days, CellTiter-Glo
Experimental: OE33 Colony Formation Assay
The OE33 Esophageal Adenocarcinoma cell line was cultured and plated into 96-well tissue culture plates under sparse conditions (200 cells/well). Test compounds were serially diluted in DMSO and then into culture media (final DMSO concentration = 0.1%). Compound/media was then added to cells every 48 hours for a total of 7 days. Clonogenic growth was assessed using the CellTiter-Glo reagent, according to manufacturer (Promega) specifications. Percent inhibition was calculated as the percent of luminescence normalized to control (0.1% DMSO) wells. Nonlinear regression curve fitting was performed using GraphPad Prism software to determine EC50′s.

[3] = tested on: Notch1; test: Notch1 Reporter Assay
[4] = 293A cells, 24 h, luciferase normalized to cell viability

| SMILES | EC50 [2] [µM] | IC50 ([3]; Formate Salt) [µM] | IC50 [3] [µM] | IC50 ([1]; value printed in the synthesis heading of the compound) [µM] | IC50 [1, 4] [µM] |
| --- | --- | --- | --- | --- | --- |
| CC(C)Cn1c(=O)c(C(=O)Nc2cccc(F)c2)c(O)c2cc(N3CCN(C)CC3)ccc21 [577(02)] | 0.66 | – | – | – | 6.4 |
| CC(C)Cn1c(=O)c(C(=O)Nc2cc(F)c(N3CCN(C)CC3)c(F)c2)c(O)c2ccccc21 [582(02)] | 1.1 | – | – | – | 1.9 |
| CC(C)Cn1c(=O)c(C(=O)Nc2ccc(F)c(N3CCN(C)CC3)c2)c(O)c2ccccc21 [584(02)] | 2 | – | – | – | 6 |
| CC(C)Cn1c(=O)c(C(=O)Nc2cccc(F)c2)c(O)c2c(N3CCNCC3)cccc21 [SSTN-587_HCl salt, N-(3-fluorophenyl)-4-hydroxy-1-isobutyl-2-oxo-5-(piperazin-1-yl)-1,2-dihydroquinoline-3-carboxamide hydrochloride salt] | 1.7 | – | – | 3.76 | 3.8 |
| CC(C)Cn1c(=O)c(C(=O)Nc2ccon2)c(O)c2ccccc21 [compound 525, 4-hydroxy-1-isobutyl-N-(isoxazol-3-yl)-2-oxo-1,2-dihydroquinoline-3-carboxamide] | 7.4 | – | – | – | 13.8 |
| CC(C)Cn1c(=O)c(C(=O)Nc2cnn(C)c2)c(O)c2ccccc21 [compound 534, 4-hydroxy-1-isobutyl-N-(1-methyl-1H-pyrazol-4-yl)-2-oxo-1,2-dihydroquinoline-3-carboxamide] | 2.5 | – | – | – | 11.3 |

Second part, led by results:

| EC50 [2] [µM] | IC50 ([3]; Formate Salt) [µM] | IC50 [3] [µM] | IC50 ([1]; value printed in the synthesis heading of the compound) [µM] | SMILES | IC50 [1, 4] [µM] |
| --- | --- | --- | --- | --- | --- |
| – | 10.2 | – | – | CC(C)Cn1c(=O)c(C(=O)Nc2cccc(N3CCN(C)CC3)c2)c(O)c2ccccc21 [SSTN-560 Formate Salt, 4-Hydroxy-1-Isobutyl-N-(3-(4-Methylpiperazin-1-Yl)Phenyl)-2-Oxo-1,2-Dihydroquinoline-3-Carboxamide Formate Salt] | – |
| – | – | 14.2 | – | CC(C)Cn1c(=O)c(C(=O)Nc2cccc(N3CCN(C)CC3)c2)c(O)c2ccccc21 [SSTN-560, 4-hydroxy-1-isobutyl-N-(3-(4-methylpiperazin-1-yl)phenyl)-2-oxo-1,2-dihydroquinoline-3-carboxamide] | – |
| – | – | 7.7 | – | CC(C)Cn1c(=O)c(C(=O)Nc2cccc(N3CCN(C)CC3)c2)c(O)c2ccccc21 [SSTN-560_HCI salt, 4-hydroxy-1-isobutyl-N-(3-(4-methylpiperazin-1-yl)phenyl)-2-oxo-1,2-dihydroquinoline-3-carboxamide] | – |
| 6 | – | – | – | CC(C)Cn1c(=O)c(C(=O)Nc2cc(F)ccn2)c(O)c2ccccc21 [compound 522, N-(4-fluoropyridin-2-yl)-4-hydroxy-1-isobutyl-2-oxo-1,2-dihydroquinoline-3-carboxamide] | 17.2 |
| 1.7 | – | – | – | CC(C)Cn1c(=O)c(C(=O)Nc2cccc(F)c2)c(O)c2ccccc21 [compound 538, N-(3-fluorophenyl)-4-hydroxy-1-isobutyl-2-oxo-1,2-dihydroquinoline-3-carboxamide] | 9.6 |
| 0.9 | – | – | – | CC(C)Cn1c(=O)c(C(=O)Nc2cccc(N3CCNCC3)c2)c(O)c2ccccc21 [compound 552, 4-hydroxy-1-isobutyl-2-oxo-N-(3-(piperazin-1-yl)phenyl)-1,2-dihydroquinoline-3-carboxamide trifluoro aceticacid] | 4.3 |
| 3.9 | – | – | – | CC(C)Cn1c(=O)c(C(=O)Nc2cccc(N(C)C3CC3)c2)c(O)c2ccccc21 [compound 561, N-(3-(cyclopropyl(methyl)amino)phenyl)-4-hydroxy-1-isobutyl-2-oxo-1,2-dihydroquinoline-3-carboxamide] | 19.1 |
| 7.7 | – | – | – | CC(C)Cn1c(=O)c(C(=O)Nc2cccc(N(C)CC3CC3)c2)c(O)c2ccccc21 [compound 562, N-(3-((cyclopropylmethyl)(methyl)amino)phenyl)-4-hydroxy-1-isobutyl-2-oxo-1,2-dihydroquinoline-3-carboxamide] | 15 |
